# Where two headings read alike, the source gives them in different places.
# T1: wild type human carboxypeptidase A1 (Homo sapiens, UniProt P15085)
# T1 sequence (P15085 111-419): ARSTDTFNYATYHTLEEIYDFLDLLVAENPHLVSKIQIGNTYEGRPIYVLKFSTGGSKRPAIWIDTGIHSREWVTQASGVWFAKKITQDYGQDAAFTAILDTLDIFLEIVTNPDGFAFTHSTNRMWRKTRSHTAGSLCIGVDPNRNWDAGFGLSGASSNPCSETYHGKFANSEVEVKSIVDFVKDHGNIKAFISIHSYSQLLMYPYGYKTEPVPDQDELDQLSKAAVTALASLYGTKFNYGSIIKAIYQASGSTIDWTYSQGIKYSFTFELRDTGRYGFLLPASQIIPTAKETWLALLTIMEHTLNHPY
# B1: proCPA: procarboxypeptidase A, cleaved to mature CPA with trypsin (protein, UniProt P15085 17-419, looked up)
# pro-form: KEDFVGHQVLRISVADEAQVQKVKELEDLEHLQLDFWRGPAHPGSPIDVRVPFPSIQAVKIFLESHGISYETMIEDVQSLLDEEQEQMFAFRSRARSTDTFNYATYHTLEEIYDFLDLLVAENPHLVSKIQIGNTYEGRPIYVLKFSTGGSKRPAIWIDTGIHSREWVTQASGVWFAKKITQDYGQDAAFTAILDTLDIFLEIVTNPDGFAFTHSTNRMWRKTRSHTAGSLCIGVDPNRNWDAGFGLSGASSNPCSETYHGKFANSEVEVKSIVDFVKDHGNIKAFISIHSYSQLLMYPYGYKTEPVPDQDELDQLSKAAVTALASLYGTKFNYGSIIKAIYQASGSTIDWTYSQGIKYSFTFELRDTGRYGFLLPASQIIPTAKETWLALLTIMEHTLNHPY
# modifications: pro-form
# notes: procarboxypeptidase A, cleaved to mature CPA with trypsin
# B2: wild type human carboxypeptidase A1 (Homo sapiens) (protein)
# chain: ARSTDTFNYATYHTLEEIYDFLDLLVAENPHLVSKIQIGNTYEGRPIYVLKFSTGGSKRPAIWIDTGIHSREWVTQASGVWFAKKITQDYGQDAAFTAILDTLDIFLEIVTNPDGFAFTHSTNRMWRKTRSHTAGSLCIGVDPNRNWDAGFGLSGASSNPCSETYHGKFANSEVEVKSIVDFVKDHGNIKAFISIHSYSQLLMYPYGYKTEPVPDQDELDQLSKAAVTALASLYGTKFNYGSIIKAIYQASGSTIDWTYSQGIKYSFTFELRDTGRYGFLLPASQIIPTAKETWLALLTIMEHTLNHPY
# Key:
# [1] = target: T1, wild type human carboxypeptidase A1; experiment: Enzyme kinetics of prodrugs with wild type human carboxypeptidase A1 (coupled assay); type: biochemical; conditions: for kcat (symbol ND): Human CPA1, rate too slow to assay
# Method in brief: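 Coupled spectrophotometric assay: released methotrexate converted by excess carboxypeptidase G (17 milliunits) to its pteroate, followed at 315 nm (Δε 9.57 mM^-1 cm^-1). 25° C in 25 mM tris-HCl, 100 mM NaCl, pH 7.4; reaction started with wild-type or mutant carboxypeptidase A. Kinetic constants from initial velocities by Michaelis-Menten analysis.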
# 268gly = experiment: Enzyme kinetics of prodrugs with 268gly mutant of human CPA1 (coupled assay); type: biochemical; conditions: for kcat/Km: 268Gly; for Km / kcat: 268gly, 25° C., pH 7.4
# Source text: (§1) As indicated herein, the in vivo stable prodrug of the present invention should be a better substrate for a mutant enzyme than the corresponding wild type enzyme in order for the stable prodrug to be activated selectively at the tumour. […] The most relevant kinetic constant in the table is the kcat/Km, which provides an estimate of the second order rate constant for the enzyme catalyzed conversion of prodrug to methotrexate. Thus, the larger the kcat/Km, the more efficient the enzyme with a particular substrate. […] Thus, the single mutation at 268 from thr to gly converted very poor substrates in the wild type enzyme to excellent substrates in the mutant enzyme. […] Thus, the compounds are much better substrates for the mutant enzyme than the wild type enzyme which permits very specific tumor targeted activation of the nontoxic, stable prodrug to the active agent.
# (§2) Kinetics were determined by a modification of the coupled assay of Kuefner, et al (1989) Biochemistry 28 2288-2297 in which the product MTX is converted by excess carboxypeptidase G to the pteroate of MTX. In this assay the reaction is followed spectrophotometrically at 315 nm; at this wavelength the change in molar absorbtivity for the coupled reaction was determined to be 9.57 mM^-1 cm^-1. Assays were performed at 25° C. in 25 mM tris-HCl, 100 mM NaCl, pH 7.4. Prodrugs were preincubated at 25° C. with buffer and 17 milliunits of Sigma #C-9658 carboxypeptidase G in 1 ml total volume. Assay was initiated with carboxypeptidase A or the appropriate mutant. Initial velocities were obtained, and standard Michaelis-Menten calculations were used to determine kinetic constants (in Biochemistry, Lehninger, A. L. 1970, Worth Publishers, Inc, NY).
# 268ala = experiment: Enzyme kinetics of prodrugs with 268ala mutant of human CPA1 (coupled assay); type: biochemical
# Source text: as §1, §2
# [2] = mouse, in vivo, iv
# in vivo = conditions: mouse, iv
# [3] = Stability and biodistribution of prodrugs in vivo (HPLC of plasma and tissues); set-up: species or system mice (CD-1 nude; BALB/C where indicated)
# mutant enzyme = experiment: Substrate behaviour with mutant enzyme; type: biochemical, human
# Source text: This type of compound is not useful for ADEPT.
# [4] = IEF of proCPA and mature CPA; type: physicochemical
# Protocol: The final OD600 was 14. […] All subsequent buffers contained 0.1 mM Zn-acetate. […] Total protein=368 mg.
# [5] = substrate: CN(Cc1cnc2nc(N)nc(N)c2n1)c1ccc(C(=O)N[C@@H](CCC(=O)O)C(=O)N[C@@H](Cc2ccccc2)C(=O)O)cc1; experiment: Enzyme kinetics of prodrugs with wild type human carboxypeptidase A1 (coupled assay); type: biochemical; conditions: other: Human CPA1, 25° C., pH 7.4
# Source text: as §1
# (§3) Kinetics were determined by a modification of the coupled assay of Kuefner, et al (1989) Biochemistry 28 2288-2297 in which the product MTX is converted by excess carboxypeptidase G to the pteroate of MTX. In this assay the reaction is followed spectrophotometrically at 315 nm; at this wavelength the change in molar absorbtivity for the coupled reaction was determined to be 9.57 mM^-1 cm^-1. Assays were performed at 25° C. in 25 mM tris-HCl, 100 mM NaCl, pH 7.4. […]
# [6] = substrate: CN(Cc1cnc2nc(N)nc(N)c2n1)c1ccc(C(=O)N[C@@H](CCC(=O)O)C(=O)N[C@@H](Cc2ccccc2C2CCCC2)C(=O)O)cc1; experiment: as above; type: biochemical; conditions: other: Human CPA1, 25° C., pH 7.4
# Source text: as §1, §3
molecule,measurement,setting,value
CN(Cc1cnc2nc(N)nc(N)c2n1)c1ccc(C(=O)N[C@@H](CCC(=O)O)C(=O)N[C@@H](Cc2cccc(C3CCC3)c2)C(=O)O)cc1,human CPA catalyzed reaction (in words),[1],not measureable
same,kcat/Km for human CPA1 compared with that of the L-phenylalanine prodrug (in words),[1],much lower
same,kcat (symbol ND),[1],ND (not determined; rate to slow assay. kcat ≤ 0.0005/sec.)
same,kcat/Km,268gly,1.8e+06 M⁻¹ s⁻¹
same,activity of 268Gly relative to CPA1 with the L-phenylalanine prodrug of MTX,268gly; 268Gly with prodrug vs human CPA1 with L-phenylalanine prodrug,4 times
same,Km,268gly,1.8 µM
same,kcat,268gly,3 s⁻¹
same,Km,"268ala; 25° C., pH 7.4",160 µM
same,kcat,"268ala; 25° C., pH 7.4",0.12 s⁻¹
same,dose showing some toxicity,[2],30 mg/kg
same,MTD,in vivo,< 30 mg/kg
"CN(Cc1cnc2nc(N)nc(N)c2n1)c1ccc(C(=O)N[C@@H](CCC(=O)O)C(=O)N[C@@H](Cc2cccc(C(C)(C)C)c2)C(=O)O)cc1 [Prodrug 12, N-(4-(((2,4-diamino-6-pterdinyl)methyl)methylamino)benzoyl)-L-glutam-1-yl-3-tert-butyl-L-phenylalanine]",human CPA catalyzed reaction (in words),[1],not measureable
same,kcat/Km for human CPA1 compared with that of the L-phenylalanine prodrug (in words),[1],much lower
same,substrate for wild type CPA (in words),[1],not for the wild type enzyme
same,kcat (symbol ND),[1],ND (not determined; rate to slow assay. kcat ≤ 0.0005/sec.)
same,activity of 268Gly compared with human CPA1 with the L-phenylalanine prodrug (in words),268gly,not different
same,kcat/Km,268gly,380000 M⁻¹ s⁻¹
same,Km,268gly,2.1 µM
same,kcat,268gly,0.81 s⁻¹
same,concentration of prodrug in cecum,"[3]; CECUM, 30 min, 50 mg/kg i.p. or i.v., CD-1 nude mice",16.3 nmol/g
same,concentration of prodrug in cecum,"[3]; CECUM, 120 min, 50 mg/kg i.p. or i.v., CD-1 nude mice",402.3 nmol/g
same,concentration of prodrug in feces,"[3]; FECES, 30 min, 50 mg/kg i.p. or i.v., CD-1 nude mice",1205 nmol/g
same,concentration of prodrug in feces,"[3]; FECES, 120 min, 50 mg/kg i.p. or i.v., CD-1 nude mice",1941 nmol/g
same,concentration of prodrug in kidney,"[3]; KIDNEY, 30 min, 50 mg/kg i.p. or i.v., CD-1 nude mice",2.2 nmol/g
same,concentration of prodrug in kidney,"[3]; KIDNEY, 120 min, 50 mg/kg i.p. or i.v., CD-1 nude mice",0.2 nmol/g
same,concentration of prodrug in large intestine,"[3]; LARGE INTESTINE, 120 min, 50 mg/kg i.p. or i.v., CD-1 nude mice",14.7 nmol/g
same,concentration of prodrug in liver,"[3]; LIVER, 30 min, 50 mg/kg i.p. or i.v., CD-1 nude mice",58.6 nmol/g
same,concentration of prodrug in liver,"[3]; LIVER, 120 min, 50 mg/kg i.p. or i.v., CD-1 nude mice",39.5 nmol/g
same,concentration of prodrug in small intestine,"[3]; SMALL INTESTINE, 30 min, 50 mg/kg i.p. or i.v., CD-1 nude mice",550.8 nmol/g
same,concentration of prodrug in small intestine,"[3]; SMALL INTESTINE, 120 min, 50 mg/kg i.p. or i.v., CD-1 nude mice",44.9 nmol/g
same,concentration of prodrug in tumor,"[3]; TUMOR, 30 min, 50 mg/kg i.p. or i.v., CD-1 nude mice",1.6 nmol/g
same,stability in vivo (in words),"[3]; mice, 50 mg/kg",stable in vivo
same,remaining at 0.5 h,"[3]; mouse, cecum, 50 mg/kg, CECUM, 30 min, 50 mg/kg i.p. or i.v., CD-1 nude mice, read-out: stability: percentage of material observed as intact prodrug, cecum",100%
same,remaining at 2 h,"[3]; mouse, cecum, 50 mg/kg, CECUM, 120 min, 50 mg/kg i.p. or i.v., CD-1 nude mice, read-out: stability: percentage of material observed as intact prodrug, cecum",80.7%
same,remaining at 0.5 h,"[3]; mouse, feces, 50 mg/kg, FECES, 30 min, 50 mg/kg i.p. or i.v., CD-1 nude mice, read-out: stability: percentage of material observed as intact prodrug, feces (converted)",93%
same,remaining at 2 h,"[3]; mouse, feces, 50 mg/kg, FECES, 120 min, 50 mg/kg i.p. or i.v., CD-1 nude mice, read-out: stability: percentage of material observed as intact prodrug, feces",82%
same,remaining at 0.5 h,"[3]; mouse, kidney, 50 mg/kg, KIDNEY, 30 min, 50 mg/kg i.p. or i.v., CD-1 nude mice, read-out: stability: percentage of material observed as intact prodrug, kidney",53.4%
same,remaining at 2 h,"[3]; mouse, kidney, 50 mg/kg, KIDNEY, 120 min, 50 mg/kg i.p. or i.v., CD-1 nude mice, read-out: stability: percentage of material observed as intact prodrug, kidney",21.6%
same,remaining at 2 h,"[3]; mouse, large intestine, 50 mg/kg, LARGE INTESTINE, 120 min, 50 mg/kg i.p. or i.v., CD-1 nude mice, read-out: stability: percentage of material observed as intact prodrug, large intestine",66.9%
same,remaining at 0.5 h,"[3]; mouse, liver, 50 mg/kg, LIVER, 30 min, 50 mg/kg i.p. or i.v., CD-1 nude mice, read-out: stability: percentage of material observed as intact prodrug, liver (converted)",91.3%
same,remaining at 2 h,"[3]; mouse, liver, 50 mg/kg, LIVER, 120 min, 50 mg/kg i.p. or i.v., CD-1 nude mice, read-out: stability: percentage of material observed as intact prodrug, liver",89.2%
same,concentration at 0.5 h,"[3]; mouse, plasma, 50 mg/kg, PLASMA, 30 min, 50 mg/kg i.p. or i.v., CD-1 nude mice, read-out: concentration of prodrug in plasma",2600 nM
same,remaining at 0.5 h,"[3]; mouse, plasma, 50 mg/kg, PLASMA, 30 min, 50 mg/kg i.p. or i.v., CD-1 nude mice, read-out: stability: percentage of material observed as intact prodrug, plasma",100%
same,concentration at 2 h,"[3]; mouse, plasma, 50 mg/kg, PLASMA, 120 min, 50 mg/kg i.p. or i.v., CD-1 nude mice, read-out: concentration of prodrug in plasma",700 nM
same,remaining at 2 h,"[3]; mouse, plasma, 50 mg/kg, PLASMA, 120 min, 50 mg/kg i.p. or i.v., CD-1 nude mice, read-out: stability: percentage of material observed as intact prodrug, plasma",100%
same,remaining at 0.5 h,"[3]; mouse, small intestine, 50 mg/kg, SMALL INTESTINE, 30 min, 50 mg/kg i.p. or i.v., CD-1 nude mice, read-out: stability: percentage of material observed as intact prodrug, small intestine",91%
same,remaining at 2 h,"[3]; mouse, small intestine, 50 mg/kg, SMALL INTESTINE, 120 min, 50 mg/kg i.p. or i.v., CD-1 nude mice, read-out: stability: percentage of material observed as intact prodrug, small intestine",67%
same,remaining at 0.5 h,"[3]; mouse, tumor, 50 mg/kg, TUMOR, 30 min, 50 mg/kg i.p. or i.v., CD-1 nude mice, read-out: stability: percentage of material observed as intact prodrug, tumor",92.8%
same,kcat (symbol ND),268ala; rate too slow to assay,ND (not determined; rate to slow assay. kcat ≤ 0.0005/sec.)
same,MTD,in vivo,> 40 mg/kg
same,NOAEL,in vivo,≥ 40 mg/kg
same,substrate for a mutant enzyme (in words),mutant enzyme,good substrates for a mutant enzyme
B1,pI,[4],4.75
B2,pI,[4],6.2
same,Km,[5],4.3 µM
same,Km,[6],61 µM

# Reference: patent US6319702A, “Nucleic acids encoding mutant human carboxypeptidase A enzymes” (Glaxo Wellcome, Inc., priority 1993, dated 2001)
